Assay results from ChEMBL document CHEMBL5338751, “Discovery of the First-in-Class Intestinal Restricted FXR and FABP1 Dual Modulator ZLY28 for the Treatment of Nonalcoholic Fatty Liver Disease” (J Med Chem, 2023).
The source made the active and inactive calls. The rule behind the calls is not given here.

Tests used:
Mus musculus [1] = assay: Anti-NASH activity in western diet and CCl4-induced nonalcoholic steatohepatitis C57BL/6 mouse assessed as alleviation of lobular inflammation at 20 mg/kg, po administered for 12 weeks starting from week 8 and change in dose for every 5 days; type: functional, organism-based; settings: time 4.0 weeks
Mus musculus [2] = assay: Anti-NASH activity in western diet and CCl4-induced nonalcoholic steatohepatitis C57BL/6 mouse assessed as alleviation of hepatic steatosis at 20 mg/kg, po administered for 12 weeks starting from week 8 and change in dose for every 5 days; type: functional, organism-based; settings: time 4.0 weeks
[3] = biological target: T1, Fatty acid-binding protein, liver (Homo sapiens, UniProt P07148); assay: Displacement of 8-anilino-1-naphthalene-sulfonic acid from FABP1 (unknown origin) incubated for 3 mins by fluorescence based assay
T1 sequence (P07148 whole entry): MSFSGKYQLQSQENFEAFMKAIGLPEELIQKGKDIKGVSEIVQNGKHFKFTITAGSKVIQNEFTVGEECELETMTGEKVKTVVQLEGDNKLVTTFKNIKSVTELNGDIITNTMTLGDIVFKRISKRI

[4] = biological target: T2, Fatty acid-binding protein, liver (Homo sapiens) (UniProt P07148); assay: Displacement of 8-anilino-1-naphthalene-sulfonic acid from FABP1 (unknown origin) at 10 uM incubated for 3 mins by fluorescence based assay relative to control
T2 sequence (whole entry): T1 sequence (P07148 whole entry)

Bile acid receptor [5] = biological target: T3, Bile acid receptor (Homo sapiens, UniProt Q96RI1); assay: Agonist activity at FXR-LBD (unknown origin) using fluorescein-coactivator peptide incubated for 3 hrs by TR-FRET assay
T3 sequence (Q96RI1 whole entry): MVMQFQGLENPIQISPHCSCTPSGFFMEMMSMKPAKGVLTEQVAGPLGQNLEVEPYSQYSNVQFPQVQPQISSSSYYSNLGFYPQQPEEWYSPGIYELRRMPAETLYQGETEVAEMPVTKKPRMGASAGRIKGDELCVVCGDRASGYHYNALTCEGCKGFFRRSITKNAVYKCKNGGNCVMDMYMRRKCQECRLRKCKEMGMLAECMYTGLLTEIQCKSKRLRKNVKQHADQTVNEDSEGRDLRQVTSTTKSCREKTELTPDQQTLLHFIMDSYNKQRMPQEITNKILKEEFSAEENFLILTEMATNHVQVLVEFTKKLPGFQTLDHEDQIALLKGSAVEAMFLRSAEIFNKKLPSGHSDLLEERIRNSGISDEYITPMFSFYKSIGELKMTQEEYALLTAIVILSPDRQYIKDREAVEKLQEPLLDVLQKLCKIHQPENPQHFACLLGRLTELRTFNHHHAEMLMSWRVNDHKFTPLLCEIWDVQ

[6] = Metabolic stability in Sprague-Dawley rat liver microsomes assessed as parent compound remaining incubated for 1 hr by LC-MS analysis; type: ADME, Microsome; settings: read-out: Stability
[7] = Metabolic stability in rhesus monkey liver microsomes assessed as parent compound remaining incubated for 1 hr by LC-MS analysis; type: ADME, Macaca mulatta, Microsome; settings: read-out: Stability
[8] = Metabolic stability in human liver microsomes assessed as parent compound remaining incubated for 1 hr by LC-MS analysis; type: ADME, Microsome; settings: read-out: Stability
[9] = Drug concentration in C57BL/6 mouse liver at 20 mg/kg, po administered for 5 days and measured after 1 hr post final dose by LC-MS analysis; type: ADME, organism-based; settings: time 5 day, read-out: Ct
[10] = Drug concentration in C57BL/6 mouse ileum at 20 mg/kg, po administered for 5 days and measured after 1 hr post final dose by LC-MS analysis; type: ADME, organism-based; settings: time 5 day, read-out: Ct
[11] = biological target: G-protein coupled bile acid receptor 1 (Homo sapiens, UniProt Q8TDU6); assay: Activation of TGR5 (unknown origin) transfected in human NCI-H716 cells assessed as increase in cAMP production incubated for 24 hrs by HTR-FRET assay; type: functional, cell-based
[12] = Drug concentration in C57BL/6 mouse plasma at 20 mg/kg, po administered for 5 days and measured after 1 hr post final dose by LC-MS analysis; type: ADME, organism-based; settings: time 5 day
[13] = Metabolic stability in Beagle dog liver microsomes assessed as parent compound remaining incubated for 1 hr by LC-MS analysis; type: ADME, Canis lupus familiaris, Microsome; settings: read-out: Stability
[14] = biological target: Fatty acid-binding protein, heart (Homo sapiens, UniProt P05413); assay: Displacement of 8-anilino-1-naphthalene-sulfonic acid from FABP3 (unknown origin) incubated for 3 mins by fluorescence based assay
Progesterone receptor = Progesterone receptor (Homo sapiens, UniProt P06401); assay: Activation of Gal-DBD and NHRLBD fused PR (unknown origin) transfected in African green monkey CV-1 cells by luciferase reporter assay; type: cell-based
[15] = biological target: Retinoic acid receptor gamma (Homo sapiens, UniProt P13631); assay: Activation of Gal-DBD and NHRLBD fused RARgamma (unknown origin) transfected in African green monkey CV-1 cells by luciferase reporter assay; type: cell-based
[16] = biological target: Oxysterols receptor LXR-beta (Homo sapiens, UniProt P55055); assay: Inhibition of Gal-DBD and NHRLBD fused LXRbeta (unknown origin) transfected in African green monkey CV-1 cells by luciferase assay; type: cell-based
[17] = biological target: Mineralocorticoid receptor (Homo sapiens, UniProt P08235); assay: Activation of Gal-DBD and NHRLBD fused MR (unknown origin) transfected in African green monkey CV-1 cells by luciferase reporter assay; type: cell-based
[18] = biological target: Retinoic acid receptor alpha (Homo sapiens, UniProt P10276); assay: Activation of Gal-DBD and NHRLBD fused RARalpha (unknown origin) transfected in African green monkey CV-1 cells by luciferase reporter assay; type: cell-based
[19] = Metabolic stability in mouse liver microsomes assessed as parent compound remaining incubated for 1 hr by LC-MS analysis; type: ADME, Microsome; settings: read-out: Stability
[20] = biological target: Fatty acid-binding protein, adipocyte (Homo sapiens, UniProt P15090); assay: Displacement of 8-anilino-1-naphthalene-sulfonic acid from FABP4 (unknown origin) incubated for 3 mins by fluorescence based assay
Androgen receptor = Androgen receptor (Homo sapiens, UniProt P10275); assay: Activation of Gal-DBD and NHRLBD fused AR (unknown origin) transfected in African green monkey CV-1 cells by luciferase reporter assay; type: cell-based
[21] = biological target: Oxysterols receptor LXR-alpha (Homo sapiens, UniProt Q13133); assay: Inhibition of Gal-DBD and NHRLBD fused LXRalpha (unknown origin) transfected in African green monkey CV-1 cells by luciferase assay; type: cell-based
Bile acid receptor [22] = biological target: T3, Bile acid receptor; assay: Agonist activity at FXR (unknown origin) expressed in human HepG2 cells co-transfected with human RXR assessed as luciferase activity incubated for 24 hrs by cell-based luciferase assay
[23] = Inhibition of PPARbeta/delta (unknown origin) transfected in HepG2 cells incubated for 18 hrs in presence of GW0742 by dual luciferase reporter assay; settings: Homo sapiens, HepG2, 18 h
[24] = biological target: Thyroid hormone receptor beta (Homo sapiens, UniProt P10828); assay: Activation of pGAL4 fused THRbeta LBD (unknown origin) transfected in HEK293 cells cotransfected with pG5-Luc and pRL-TK incubated for 24 hrs by Renilla/Firefly based dual-glo luciferase assay; type: cell-based
[25] = biological target: T4, Peroxisome proliferator-activated receptor gamma (Homo sapiens, UniProt P37231); assay: Inhibition of PPARgamma (unknown origin) transfected in HEK293 cells incubated for 18 hrs in presence of rosiglitazone by dual luciferase reporter assay; type: cell-based
T4 sequence (P37231 whole entry): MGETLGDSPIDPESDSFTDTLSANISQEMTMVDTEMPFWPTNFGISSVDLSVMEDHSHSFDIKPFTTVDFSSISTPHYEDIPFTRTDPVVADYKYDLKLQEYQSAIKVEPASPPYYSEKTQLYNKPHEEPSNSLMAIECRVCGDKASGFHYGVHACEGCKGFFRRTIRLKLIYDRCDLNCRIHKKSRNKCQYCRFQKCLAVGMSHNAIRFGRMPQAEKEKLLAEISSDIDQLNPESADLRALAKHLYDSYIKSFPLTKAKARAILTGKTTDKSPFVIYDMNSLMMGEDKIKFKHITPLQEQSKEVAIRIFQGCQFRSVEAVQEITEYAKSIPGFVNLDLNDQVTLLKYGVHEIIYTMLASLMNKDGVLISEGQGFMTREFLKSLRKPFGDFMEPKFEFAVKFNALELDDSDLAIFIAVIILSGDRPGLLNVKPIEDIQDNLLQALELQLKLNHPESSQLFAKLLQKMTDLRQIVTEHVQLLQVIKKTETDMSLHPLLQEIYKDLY

[26] = biological target: T5, Peroxisome proliferator-activated receptor alpha (Homo sapiens, UniProt Q07869); assay: Inhibition of pBIND-PPARalpha (unknown origin) transfected in HepG2 cells incubated for 18 hrs in presence of […] by dual luciferase reporter assay; type: cell-based
T5 sequence (Q07869 whole entry): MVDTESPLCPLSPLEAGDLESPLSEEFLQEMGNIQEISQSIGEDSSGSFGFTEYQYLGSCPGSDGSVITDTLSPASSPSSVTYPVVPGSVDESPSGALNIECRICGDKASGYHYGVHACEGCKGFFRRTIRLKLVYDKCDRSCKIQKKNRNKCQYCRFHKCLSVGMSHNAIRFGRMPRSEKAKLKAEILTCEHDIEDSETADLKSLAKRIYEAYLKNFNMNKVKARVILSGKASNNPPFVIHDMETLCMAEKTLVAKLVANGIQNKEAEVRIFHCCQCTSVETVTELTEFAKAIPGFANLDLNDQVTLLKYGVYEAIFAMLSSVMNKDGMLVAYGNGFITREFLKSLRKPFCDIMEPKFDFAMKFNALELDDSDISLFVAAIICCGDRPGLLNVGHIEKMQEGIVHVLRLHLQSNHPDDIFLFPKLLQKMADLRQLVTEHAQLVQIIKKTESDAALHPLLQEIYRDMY

Chain of Oxysterols receptor LXR-beta (P55055 whole entry, the tested form may be a part): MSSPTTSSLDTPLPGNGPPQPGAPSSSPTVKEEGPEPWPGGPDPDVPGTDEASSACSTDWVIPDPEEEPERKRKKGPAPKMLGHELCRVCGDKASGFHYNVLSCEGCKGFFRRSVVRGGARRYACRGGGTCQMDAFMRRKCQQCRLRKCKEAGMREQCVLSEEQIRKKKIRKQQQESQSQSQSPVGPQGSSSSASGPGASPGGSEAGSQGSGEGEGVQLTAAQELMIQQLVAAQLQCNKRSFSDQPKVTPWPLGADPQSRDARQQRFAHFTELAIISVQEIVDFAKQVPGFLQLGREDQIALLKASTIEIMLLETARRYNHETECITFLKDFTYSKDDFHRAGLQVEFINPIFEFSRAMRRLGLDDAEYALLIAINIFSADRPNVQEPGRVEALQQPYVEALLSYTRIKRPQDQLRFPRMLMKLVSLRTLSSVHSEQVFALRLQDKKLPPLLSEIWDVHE
Chain of Oxysterols receptor LXR-alpha (Q13133 whole entry, the tested form may be a part): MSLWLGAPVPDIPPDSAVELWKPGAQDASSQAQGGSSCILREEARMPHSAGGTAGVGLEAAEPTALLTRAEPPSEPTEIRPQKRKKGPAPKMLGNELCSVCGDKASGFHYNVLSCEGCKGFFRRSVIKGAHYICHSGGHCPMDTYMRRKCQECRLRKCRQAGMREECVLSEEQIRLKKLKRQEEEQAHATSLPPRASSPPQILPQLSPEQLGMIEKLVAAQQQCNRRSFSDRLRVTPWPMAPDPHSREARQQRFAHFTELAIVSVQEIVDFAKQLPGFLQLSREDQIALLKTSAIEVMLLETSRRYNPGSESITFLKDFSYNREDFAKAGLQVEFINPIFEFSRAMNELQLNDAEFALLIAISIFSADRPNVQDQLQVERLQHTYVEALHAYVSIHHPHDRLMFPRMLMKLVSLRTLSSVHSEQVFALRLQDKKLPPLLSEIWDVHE
Chain of Mineralocorticoid receptor (P08235 whole entry, the tested form may be a part): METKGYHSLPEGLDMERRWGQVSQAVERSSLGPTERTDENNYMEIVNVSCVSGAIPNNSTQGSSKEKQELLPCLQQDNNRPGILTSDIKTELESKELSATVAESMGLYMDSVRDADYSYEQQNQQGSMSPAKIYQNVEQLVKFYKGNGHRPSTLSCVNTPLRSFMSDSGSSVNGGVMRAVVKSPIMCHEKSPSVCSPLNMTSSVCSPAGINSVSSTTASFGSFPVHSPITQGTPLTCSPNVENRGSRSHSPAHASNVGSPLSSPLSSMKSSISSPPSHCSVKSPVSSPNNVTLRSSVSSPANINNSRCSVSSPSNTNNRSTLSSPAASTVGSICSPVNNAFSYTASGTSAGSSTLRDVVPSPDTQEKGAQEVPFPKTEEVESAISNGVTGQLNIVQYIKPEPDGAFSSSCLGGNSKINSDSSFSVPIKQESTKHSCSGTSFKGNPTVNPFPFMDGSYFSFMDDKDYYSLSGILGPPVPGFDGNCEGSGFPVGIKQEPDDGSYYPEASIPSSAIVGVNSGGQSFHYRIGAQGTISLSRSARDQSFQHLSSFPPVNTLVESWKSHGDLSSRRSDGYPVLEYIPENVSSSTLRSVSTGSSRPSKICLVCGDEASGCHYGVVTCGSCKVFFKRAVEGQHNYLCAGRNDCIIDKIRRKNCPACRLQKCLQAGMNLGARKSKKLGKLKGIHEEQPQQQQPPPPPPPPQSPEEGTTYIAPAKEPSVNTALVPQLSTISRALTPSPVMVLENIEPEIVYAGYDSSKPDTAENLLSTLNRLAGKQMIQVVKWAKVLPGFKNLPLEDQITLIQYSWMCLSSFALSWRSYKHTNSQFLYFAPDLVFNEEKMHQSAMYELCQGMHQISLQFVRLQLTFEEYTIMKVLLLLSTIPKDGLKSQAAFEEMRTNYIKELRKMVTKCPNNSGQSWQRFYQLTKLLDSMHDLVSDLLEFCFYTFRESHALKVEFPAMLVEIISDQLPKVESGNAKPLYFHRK
Chain of Retinoic acid receptor gamma (P13631 whole entry, the tested form may be a part): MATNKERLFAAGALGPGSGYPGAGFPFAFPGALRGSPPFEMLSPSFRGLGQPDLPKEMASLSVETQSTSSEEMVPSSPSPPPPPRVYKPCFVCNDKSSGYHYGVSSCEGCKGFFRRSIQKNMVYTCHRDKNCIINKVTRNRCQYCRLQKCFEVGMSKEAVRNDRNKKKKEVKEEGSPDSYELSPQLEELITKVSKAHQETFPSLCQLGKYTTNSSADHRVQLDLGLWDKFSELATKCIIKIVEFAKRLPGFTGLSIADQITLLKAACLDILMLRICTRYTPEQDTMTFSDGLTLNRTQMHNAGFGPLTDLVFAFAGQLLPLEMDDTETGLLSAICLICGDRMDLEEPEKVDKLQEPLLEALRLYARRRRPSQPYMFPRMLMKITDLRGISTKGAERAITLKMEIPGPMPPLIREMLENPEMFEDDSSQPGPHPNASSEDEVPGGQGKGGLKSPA
Chain of Fatty acid-binding protein, adipocyte (P15090 whole entry, the tested form may be a part): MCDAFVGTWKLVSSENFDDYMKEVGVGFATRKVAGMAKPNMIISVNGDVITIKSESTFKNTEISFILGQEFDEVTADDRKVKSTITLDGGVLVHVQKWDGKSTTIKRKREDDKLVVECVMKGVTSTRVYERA
Chain of Androgen receptor (P10275 whole entry, the tested form may be a part): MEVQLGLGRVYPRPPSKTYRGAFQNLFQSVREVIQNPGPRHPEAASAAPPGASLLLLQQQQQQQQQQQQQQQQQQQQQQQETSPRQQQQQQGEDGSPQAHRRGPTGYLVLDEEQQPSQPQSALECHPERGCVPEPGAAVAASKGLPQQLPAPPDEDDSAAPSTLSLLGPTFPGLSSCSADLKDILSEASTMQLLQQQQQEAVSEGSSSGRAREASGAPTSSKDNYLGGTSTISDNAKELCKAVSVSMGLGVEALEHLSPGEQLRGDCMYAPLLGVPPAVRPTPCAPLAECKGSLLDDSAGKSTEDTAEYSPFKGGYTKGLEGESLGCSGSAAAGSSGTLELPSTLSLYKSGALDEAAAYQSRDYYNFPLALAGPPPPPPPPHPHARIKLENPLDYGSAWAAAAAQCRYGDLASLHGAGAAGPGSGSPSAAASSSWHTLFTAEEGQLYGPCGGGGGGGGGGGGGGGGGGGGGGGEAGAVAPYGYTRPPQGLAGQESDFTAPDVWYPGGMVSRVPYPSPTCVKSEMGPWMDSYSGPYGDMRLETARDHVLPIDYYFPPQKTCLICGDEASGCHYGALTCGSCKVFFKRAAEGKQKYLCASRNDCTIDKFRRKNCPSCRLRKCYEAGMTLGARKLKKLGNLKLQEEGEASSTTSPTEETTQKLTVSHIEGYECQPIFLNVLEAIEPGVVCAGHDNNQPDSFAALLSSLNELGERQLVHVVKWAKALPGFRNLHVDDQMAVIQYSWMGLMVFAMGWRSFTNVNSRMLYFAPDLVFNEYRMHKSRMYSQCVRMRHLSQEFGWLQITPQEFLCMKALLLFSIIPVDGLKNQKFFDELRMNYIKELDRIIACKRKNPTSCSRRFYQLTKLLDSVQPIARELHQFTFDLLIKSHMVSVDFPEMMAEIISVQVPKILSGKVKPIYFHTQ
Chain of Thyroid hormone receptor beta (P10828 whole entry, the tested form may be a part): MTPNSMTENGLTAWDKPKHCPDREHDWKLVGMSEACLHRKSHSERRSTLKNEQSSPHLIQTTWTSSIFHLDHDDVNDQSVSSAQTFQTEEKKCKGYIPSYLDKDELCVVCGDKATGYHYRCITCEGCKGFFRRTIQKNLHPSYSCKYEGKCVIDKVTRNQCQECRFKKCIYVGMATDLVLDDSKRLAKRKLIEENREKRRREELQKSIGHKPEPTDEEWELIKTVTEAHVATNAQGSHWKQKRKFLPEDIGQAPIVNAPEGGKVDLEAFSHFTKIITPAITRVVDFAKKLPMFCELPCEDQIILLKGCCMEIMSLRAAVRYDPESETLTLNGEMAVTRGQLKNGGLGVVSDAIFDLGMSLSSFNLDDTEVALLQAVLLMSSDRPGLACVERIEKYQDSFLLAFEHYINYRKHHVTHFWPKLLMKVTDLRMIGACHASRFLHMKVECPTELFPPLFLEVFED
Chain of G-protein coupled bile acid receptor 1 (Q8TDU6 whole entry): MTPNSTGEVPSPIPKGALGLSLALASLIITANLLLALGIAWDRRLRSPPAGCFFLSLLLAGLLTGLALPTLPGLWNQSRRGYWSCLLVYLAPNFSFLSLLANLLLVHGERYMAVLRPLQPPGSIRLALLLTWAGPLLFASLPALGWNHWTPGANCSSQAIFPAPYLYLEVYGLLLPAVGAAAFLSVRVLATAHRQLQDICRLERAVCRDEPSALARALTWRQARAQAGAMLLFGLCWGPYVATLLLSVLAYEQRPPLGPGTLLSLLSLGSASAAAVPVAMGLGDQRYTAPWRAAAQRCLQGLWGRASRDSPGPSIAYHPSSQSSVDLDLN
Chain of Retinoic acid receptor alpha (P10276 whole entry, the tested form may be a part): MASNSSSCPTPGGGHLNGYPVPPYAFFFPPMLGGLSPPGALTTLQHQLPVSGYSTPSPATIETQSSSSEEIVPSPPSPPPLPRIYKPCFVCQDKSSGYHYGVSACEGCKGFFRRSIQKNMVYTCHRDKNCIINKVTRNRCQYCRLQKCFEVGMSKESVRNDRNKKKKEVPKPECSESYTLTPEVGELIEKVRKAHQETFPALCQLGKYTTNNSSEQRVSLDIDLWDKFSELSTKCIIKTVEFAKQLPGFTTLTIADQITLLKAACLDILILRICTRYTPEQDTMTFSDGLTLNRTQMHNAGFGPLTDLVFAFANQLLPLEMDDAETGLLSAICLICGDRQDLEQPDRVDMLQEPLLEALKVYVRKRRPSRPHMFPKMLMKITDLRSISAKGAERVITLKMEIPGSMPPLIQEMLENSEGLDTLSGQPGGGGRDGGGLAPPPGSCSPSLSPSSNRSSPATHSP
Chain of Fatty acid-binding protein, heart (P05413 whole entry, the tested form may be a part): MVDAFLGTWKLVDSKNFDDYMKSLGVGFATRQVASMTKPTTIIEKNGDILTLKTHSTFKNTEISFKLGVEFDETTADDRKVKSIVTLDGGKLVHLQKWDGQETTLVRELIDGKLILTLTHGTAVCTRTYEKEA

CC[C@H]1[C@@H](O)[C@@H]2[C@H](CC[C@]3(C)[C@@H]([C@H](C)CCC(=O)O)CC[C@@H]23)[C@@]2(C)CC[C@@H](O)C[C@@H]12
Activity (Mus musculus [1]): Active
Activity (Mus musculus [2]): Active

O=C(O)Cc1ccc(-c2ccc(OCc3c(-c4c(Cl)cccc4Cl)noc3C3CC3)cc2Cl)cc1
IC50 [3]: 4.3 µM

O=C(O)Cc1ccc(-c2cccc(OCc3c(-c4c(Cl)cccc4Cl)noc3C3CC3)c2)cc1
inhibition [4]: 9.5%
EC50 (Bile acid receptor [5]): > 10 µM

CC(C)(C(=O)O)c1cccc(-c2ccc(OCc3c(-c4c(Cl)cccc4Cl)noc3C3CC3)cc2)c1
inhibition [4]: 85.8%
EC50 (Bile acid receptor [5]): 0.811 µM
IC50 [3]: 1.5 µM

CC(C)c1onc(-c2c(Cl)cccc2Cl)c1COc1ccc(/C=C/c2cccc(C(=O)O)c2)c(Cl)c1
inhibition [4]: 35.2%
IC50 [3]: 15.3 µM

O=C(O)Cc1ccc(-c2ccc(OCc3c(-c4c(Cl)cccc4Cl)noc3C3CC3)cc2)cc1
remaining at 1 h [6]: 86.8%
remaining at 1 h [7]: 64.5%
IC50 [3]: 2.9 µM
remaining at 1 h [8]: 83.6%
concentration at 120 h [9]: 718 ng/g
concentration at 120 h [10]: 158 ng/g
EC50 [11]: > 10 µM
concentration at 120 h [12]: 2530 ng/mL
remaining at 1 h [13]: 69.1%
IC50 [14]: > 30 µM
EC50 (Progesterone receptor): > 10 µM
EC50 [15]: > 10 µM
EC50 [16]: > 10 µM
EC50 [17]: > 10 µM
EC50 [18]: > 10 µM
remaining at 1 h [19]: 74.3%
IC50 [20]: 5.6 µM
EC50 (Androgen receptor): > 10 µM
EC50 [21]: > 10 µM

O=C(O)COc1cccc(-c2ccc(OCc3c(-c4c(Cl)cccc4Cl)noc3C3CC3)cc2)c1
inhibition [4]: 67.1%
EC50 (Bile acid receptor [5]): 0.26 µM
IC50 [3]: 3.8 µM
EC50 (Bile acid receptor [22]): 1.85 µM

CCc1c(-c2ccccc2)c(-c2ccccc2)nn1-c1ccccc1-c1cccc(OCC(=O)O)c1
inhibition [4]: 72.7%
EC50 (Bile acid receptor [5]): > 10 µM
IC50 [23]: > 10 µM
IC50 [3]: 4 µM
EC50 [24]: > 10 µM
EC50 (Bile acid receptor [22]): > 10 µM
EC50 [16]: > 10 µM
IC50 [25]: > 10 µM
IC50 [26]: > 10 µM
EC50 [21]: > 10 µM

CC(C)(Oc1ccc(-c2ccc(OCc3c(-c4c(Cl)cccc4Cl)noc3C3CC3)cc2)cc1)C(=O)O
IC50 [3]: 5.7 µM

O=C(O)C1(c2cccc(-c3cccc(OCc4c(-c5c(Cl)cccc5Cl)noc4C4CC4)c3)c2)CC1
EC50 (Bile acid receptor [5]): > 10 µM

CC(C)c1onc(-c2c(Cl)cccc2Cl)c1COc1ccc(-c2cccc(C3(C(=O)O)CC3)c2)cc1
remaining at 1 h [6]: 41.1%
remaining at 1 h [19]: 35.6%

CC(Oc1ccc(-c2ccc(OCc3c(-c4c(Cl)cccc4Cl)noc3C3CC3)cc2)cc1)C(=O)O (centres undefined)
inhibition [4]: 69.4%
EC50 (Bile acid receptor [5]): 0.32 µM
IC50 [3]: 3.6 µM
EC50 (Bile acid receptor [22]): 3.51 µM

O=C(O)COc1ccc(-c2ccc(OCc3c(-c4c(Cl)cccc4Cl)noc3C3CC3)cc2)cc1
remaining at 1 h [6]: 68.3%
IC50 [3]: 4.2 µM
remaining at 1 h [19]: 56.8%

O=C(O)CCc1cccc(-c2ccc(OCc3c(-c4c(Cl)cccc4Cl)noc3C3CC3)cc2)c1
IC50 [3]: 3.3 µM

O=C(O)CCc1ccc(-c2ccc(OCc3c(-c4c(Cl)cccc4Cl)noc3C3CC3)cc2)cc1
remaining at 1 h [6]: 26.1%
IC50 [3]: 1.4 µM
remaining at 1 h [19]: 19.7%

O=C(O)Cc1cccc(N2CCC(OCc3c(-c4c(Cl)cccc4Cl)noc3C3CC3)CC2)c1
EC50 (Bile acid receptor [5]): > 10 µM
